The results in this text go back to ChEMBL document CHEMBL5120761, “Lanicepines A and B, Sesquiterpenes with Amino Acid-Derived Substituents from the Flowering Aerial Parts of Saussurea laniceps” (J Nat Prod, 2022).

One data set concerns Microglia. Kind of data set: Anti-inflammatory activity against mouse Microglia cells assessed as reduction in LPS-induced IL-1beta production. The class given is functional, cell-based.
A short description of data set [1]: Cytotoxicity against mouse Microglia cells assessed as reduction in cell viability. The class given is toxicity, cell-based.

Bounds are passed on as bounds.

Broadly, the IC50 is the concentration that inhibits the measured activity by half. A word on the CC50: it is the concentration giving 50% cytotoxicity. On to `C=C1[C@@H]2[C@H]3OC(=O)[C@@H](C)[C@@H]3[C@@H](O)CC(=C)[C@@H]2C[C@@H]1O`, for which the IC50 in the data set with Microglia was found to be 54.2 µM. Moreover, the CC50 in data set [1] was above 100 µM.
In the same order, the values of `C=C1[C@@H]2[C@H]3OC(=O)[C@@H](CN4C=C(C(N)=O)C[C@@H](CO)C4=O)[C@@H]3[C@@H](O)CC(=C)[C@@H]2C[C@@H]1O` are 86.7 µM and above 100 µM.
In the same order, the values of `C=C1[C@@H]2[C@H]3OC(=O)[C@@H](CNC(=O)[C@H](CO)CN4CCC[C@H]4C(=O)O)[C@@H]3[C@@H](O)CC(=C)[C@@H]2C[C@@H]1O` are 62.6 µM and above 100 µM.
In the same order, the values of `C=C1[C@@H]2[C@H]3OC(=O)[C@@H](C)[C@@H]3[C@@H](O[C@@H]3O[C@H](CO)[C@@H](O)[C@H](O)[C@H]3O)CC(=C)[C@@H]2C[C@@H]1O` are 44.5 µM and above 100 µM.
